Experimental data as given in patent publication US20160022751A1, “NOVEL COMPOSITION FOR TREATING ALZHEIMER'S DISEASE AND IMPROVING COGNITIVE FUNCTION OF ALZHEIMER'S PATIENTS” (GANGNEUNG-WONJU NATIONAL UNIVERSITY INDUSTRY ACADEMY …, priority 2014, published 2016).

Tests used:
VAChT = VAChT mRNA expression in N2a cells (RT-PCR); type: cell-based, mouse; conditions: for expression of VAChT mRNA: single ginsenoside (FIG. 7B); for expression of VAChT, dose dependence: various concentrations (FIG. 7D)
Excerpt: (§1) The present inventor reported that ChAT overexpressing human neural stem cells restored cognition with an increase of ACh levels in rat model (Park et al., Exp. Neurol., 234: 521-526, 2012). This implies that the increase of the ChAT level in cholinergic neurons plays a critical role in cognition enhancement and thus the cholinergic gene locus “VAChT/ChAT” can be a putative target for therapeutic approaches on AD. Thus the present inventor prepared transfected Neuro-2a (N2a) cells that over-express the human ChAT and APP (designated as “N2a.hChAT” and “N2a.hAPPswe”, respectively, FIG. 6) and the N2a.hChAT and N2a.hAPPswe cells were treated with the faction groups 1 to 5 isolated in the Example 3 at a centration of 50 μg/ml. Neuro-2a mouse neuroblastoma cells (Korean Cell Line Bank, Korea) were grown in DMEM supplemented with 10% fetal bovine serum (FBS), 100 U/m penicillin, and 100 μg/ml streptomycin (Invitrogen, USA) under 5% CO2 at 37° C. in tissue culture flasks. For all experiments, cells were grown to greater than 90% confluency and subjected to no more than 20 cell passages. The medium was changed every 2-3 days. Subconfluent cells were harvested and seeded at a density of 5×10^5 cells or 5×10^6 cells in poly-L-lysine-coated 35 mm or 60 mm culture plates. To recover the cells that are not completely saturated for analysis, poly-L-lysine coated 35 mm or 60 mm culture was seeded at a concentration of 5×10^5 or 5×10^6 cells on the plates. The extent of expression of hChAT and APP in the N2a.hChAT and N2a.hAAPswe cells treated with the faction groups 1 to 5 was quantified with RT-PCR using primers described in the below Table 2. At this time, beta-actin was used as an internal control.
(§2) Specifically, total RNA extracts from N2a cells were prepared using the Trizol method (Invitrogen, USA) and cDNA was synthesized from RNA by reverse transcription of 1 μg of total RNA using a reverse transcription system (Improm-II, Promega, USA) and oligo dT primers in a total volume of 20 μL. PCR amplification was performed using the primers described in Table 2 (Bioneer, Korea). Quantitative real-time PCR reactions were run on a Rotor-Gene 6000 (Corbett Research, Australia) using SensiMix™ SYBR Hi-ROX Kit (Bioline, U.K.) in 20 μL reaction mixtures. Each real-time-PCR master mix contained 10 μL 2× enzyme master mix, 7.0 μL RNase free water, 1 μL of each primer (10 pM each), and 1 μL diluted template. The PCR was performed with an initial pre-incubation step for 15 min at 95° C., followed by 45 cycles of 95° C. for 15 s, annealing at 52° C. for 15 s, and extension at 72° C. for 10 s. Melting curve analysis was used to confirm formation of the expected PCR product, and products from all assays were additionally tested with 1.2% agarose gel electrophoresis to confirm the correct lengths. An inter-run calibrator was used, and a standard curve was created for each gene to obtain PCR efficiencies. Relative sample expression levels were calculated using Rotor-Gene 6000 Series Software 1.7, and were expressed relative to β-actin and corrected for between-run variability. Data for the experimental samples were expressed as a fold unit the internal control gene.
(§3) In order to examine whether five ginsenosides affect the expression of ChAT related to the synthesis of acetylcholine and VAChT controlling extracellular secretion of acetylcholine, the present inventor analyzed the expression level of ChAT and VAChT after treating the five ginsenosides to N2a […] cells, respectively.

[1] = HPLC analysis of ginsenosides transported into the brain after oral administration; type: in vivo, BALB/c mice; conditions: mice, oral mixture of Rb1, Re, Rd, Rg1, Rg3 10 mg/kg each, brain taken after six hours, HPLC (FIG. 22)
Experimental: Thus, the present inventor performed an HPLC analysis on brain tissue extract obtained from experimental animals administrated with mixture of five ginsenosides (Rb1, Rd, Re, Rg1 and Rg3) which are contained in RgC, in order to investigate whether RgC or ginsenosides Rd, Re and Rg3 can pass through the BBB. For the HPLC analysis of ginsenosides transported into the brain, a mixture of Rb1, Re, Rd, Rg1, and Rg3 (10 mg/kg each) was administered to ten-week-old male BALB/c mice (Central Lab. Animals, Korea). Brain tissues were isolated six hours after the oral administration of the ginsenosides after the complete perfusion with 0.9% saline solution, mechanically disrupted using a TissueLyser (Qiagen, Crawley, U.K.), and centrifuged for 10 min at 13500 rpm. The supernatant (1 mL) was then mixed with n-butanol (0.4 mL) and the butanol layer was completely evaporated and dried for HPLC analysis. The chromatography was performed by the Agilent 1100 series HPLC system (Agilent Technologies, USA) equipped with a vacuum degasser, quaternary pump, and ultraviolet (UV) detector. Chromatographic separation was performed on a Zorbax SB-Aq C18 column (4.6150 mm, 5 μm) and a mixture of solvent A (water) and solvent B (acetonitrile) flowed at a rate of 1 mL/min. The gradient elution program was initiated with 79% solvent A and 21% solvent B, 0-10 min (21-22% B), 10-11 min (22-23% B), 11-29 min (23-24% B), 29-34 min (24-30% B), 34-44 min (30-32% B), 44-49 min (32-50% B), 49-64 min (50-65% B), 64-78 min (65-100% B), and equilibrated with the initial gradient program (21% B) for 10 min prior to the next injection. The column temperature was set at 35° C., the volume of the sample injection was 10 μL, and detection wavelength was set at 203 nm. The animal experiments were approved by the Gangneung-Wonju National University Animal Care and Use Committee (Approval Number: GWNU-2013-23), and all procedures were conducted in accordance with the Guide for Care and Use of Laboratory Animals published by the National Institute of Health.

ChAT = ChAT mRNA expression in N2a cells (RT-PCR); type: cell-based, mouse; conditions: for expression of ChAT mRNA: single ginsenoside (FIG. 7A); for expression of ChAT, dose dependence: various concentrations (FIG. 7C)
Excerpt: as §1, §2, §3

TrkA = TrkA gene expression in N2a cells (quantitative RT-PCR); type: cell-based, mouse; conditions: 24 h, Rd 5 μg/ml, Re 5 μg/ml or Rd/Re each 2.5 μg/ml (FIG. 11)
Experimental: On the other hand, the present inventor investigates the expression level of TrkA gene after treating ginsenoside Rd (5 μg/ml), Re (5 μg/ml) or mixture of Rd/Re (each 2.5 μg/ml) to N2a cells for 24 h, using quantitative RT-PCR method, similar to the method described in the Example 4 (FIG. 11).

SMILES	expression of VAChT mRNA (VAChT)	penetration into the brain (passage through BBB) [1]	expression of ChAT mRNA (ChAT)	expression of VAChT, dose dependence (VAChT)	expression of ChAT, dose dependence (ChAT)	expression of TrkA (TrkA)
CC(C)=CCC[C@](C)(O)[C@H]1CC[C@]2(C)[C@@H]1[C@H](O)C[C@@H]1[C@@]3(C)CC[C@H](O[C@@H]4O[C@H](CO)[C@@H](O)[C@H](O)[C@H]4O[C@@H]4O[C@H](CO)[C@@H](O)[C@H](O)[C@H]4O)C(C)(C)[C@@H]3CC[C@]12C [ginsenoside Rg3]	no significant increase	penetrated into the brain	no significant increase			
CC(C)=CCC[C@](C)(O[C@@H]1O[C@H](CO)[C@@H](O)[C@H](O)[C@H]1O)[C@H]1CC[C@]2(C)[C@@H]1[C@H](O)C[C@@H]1[C@@]3(C)CC[C@H](O)C(C)(C)[C@@H]3[C@@H](O[C@@H]3O[C@H](CO)[C@@H](O)[C@H](O)[C@H]3O[C@@H]3O[C@@H](C)[C@H](O)[C@@H](O)[C@H]3O)C[C@]12C [ginsenoside Re]	significantly increased	penetrated into the brain	significantly increased	increased expression of ChAT and VAChT in a dose-dependent manner	increased expression of ChAT and VAChT in a dose-dependent manner	increased the expression of TrkA in a dose-dependent manner
CC(C)=CCC[C@](C)(O[C@@H]1O[C@H](CO)[C@@H](O)[C@H](O)[C@H]1O)[C@H]1CC[C@]2(C)[C@@H]1[C@H](O)C[C@@H]1[C@@]3(C)CC[C@H](O[C@@H]4O[C@H](CO)[C@@H](O)[C@H](O)[C@H]4O[C@@H]4O[C@H](CO)[C@@H](O)[C@H](O)[C@H]4O)C(C)(C)[C@@H]3CC[C@]12C [ginsenoside Rd]	significantly increased	penetrated into the brain	significantly increased	increased expression of ChAT and VAChT in a dose-dependent manner	increased expression of ChAT and VAChT in a dose-dependent manner	increased the expression of TrkA in a dose-dependent manner
